Data as given in ChEMBL document CHEMBL5634153, “Design, synthesis and preclinical evaluation of muscarine receptor antagonists via a scaffold-hopping approach” (Eur J Med Chem, 2023).
Activity calls are given as the source filed them. The rule behind the calls is not given here.

How the values were obtained:
[1] = Lipophilicity, log P of compound at pH 7.4 by HPLC analysis; format: physicochemical; conditions: buffer
[2] = Cytotoxicity against CHO-K1 cells expressing human muscarinic receptor M1 incubated for 72 hrs by MTT assay; format: toxicity, cell-based; conditions: Chinese hamster (Cricetulus griseus)
[3] = biological target: T1, Muscarinic acetylcholine receptor M1 (Homo sapiens, UniProt P11229); assay: Displacement of [3H]NMS from human muscarinic M1 receptor expressed in CHO-K1 cell membrane assessed as inhibition constant incubated for 90 mins by competitive radioligand binding assay; format: cell membranes
T1 sequence (P11229 whole entry): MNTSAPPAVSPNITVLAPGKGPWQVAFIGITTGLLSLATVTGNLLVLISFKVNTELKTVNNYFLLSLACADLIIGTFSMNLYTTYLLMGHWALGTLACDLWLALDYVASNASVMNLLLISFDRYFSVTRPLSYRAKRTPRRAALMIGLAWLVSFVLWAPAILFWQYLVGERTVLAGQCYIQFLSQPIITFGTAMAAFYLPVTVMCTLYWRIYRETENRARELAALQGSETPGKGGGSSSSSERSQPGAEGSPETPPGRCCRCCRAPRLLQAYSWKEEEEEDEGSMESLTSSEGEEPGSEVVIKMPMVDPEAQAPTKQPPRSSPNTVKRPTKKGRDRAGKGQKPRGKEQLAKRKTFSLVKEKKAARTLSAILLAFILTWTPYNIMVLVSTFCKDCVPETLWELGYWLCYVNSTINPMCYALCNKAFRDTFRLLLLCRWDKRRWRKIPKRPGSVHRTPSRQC

[4] = biological target: T2, Muscarinic acetylcholine receptor M2 (Homo sapiens, UniProt P08172); assay: Displacement of [3H]NMS from human muscarinic M2 receptor expressed in CHO-K1 cell membrane assessed as inhibition constant incubated for 90 mins by competitive radioligand binding assay; format: cell membranes
T2 sequence (P08172 whole entry): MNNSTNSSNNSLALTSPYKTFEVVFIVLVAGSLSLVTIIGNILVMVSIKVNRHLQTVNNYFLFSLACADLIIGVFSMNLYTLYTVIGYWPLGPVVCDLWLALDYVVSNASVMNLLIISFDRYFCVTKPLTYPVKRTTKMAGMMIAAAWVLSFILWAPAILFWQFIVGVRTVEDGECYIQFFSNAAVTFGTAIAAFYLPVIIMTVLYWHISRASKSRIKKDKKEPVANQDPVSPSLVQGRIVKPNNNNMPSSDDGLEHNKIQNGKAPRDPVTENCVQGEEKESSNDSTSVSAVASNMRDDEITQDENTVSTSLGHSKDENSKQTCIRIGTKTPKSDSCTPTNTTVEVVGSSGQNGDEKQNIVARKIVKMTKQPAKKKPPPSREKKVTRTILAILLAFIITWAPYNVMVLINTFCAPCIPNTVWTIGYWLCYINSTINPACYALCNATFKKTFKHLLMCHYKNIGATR

[5] = biological target: Muscarinic acetylcholine receptor M3 (Homo sapiens, UniProt P20309); assay: Displacement of [3H]NMS from human muscarinic M3 receptor expressed in CHO-K1 cell membrane assessed as inhibition constant incubated for 90 mins by competitive radioligand binding assay; format: cell membranes
Sequence of Muscarinic acetylcholine receptor M3 (P20309 whole entry): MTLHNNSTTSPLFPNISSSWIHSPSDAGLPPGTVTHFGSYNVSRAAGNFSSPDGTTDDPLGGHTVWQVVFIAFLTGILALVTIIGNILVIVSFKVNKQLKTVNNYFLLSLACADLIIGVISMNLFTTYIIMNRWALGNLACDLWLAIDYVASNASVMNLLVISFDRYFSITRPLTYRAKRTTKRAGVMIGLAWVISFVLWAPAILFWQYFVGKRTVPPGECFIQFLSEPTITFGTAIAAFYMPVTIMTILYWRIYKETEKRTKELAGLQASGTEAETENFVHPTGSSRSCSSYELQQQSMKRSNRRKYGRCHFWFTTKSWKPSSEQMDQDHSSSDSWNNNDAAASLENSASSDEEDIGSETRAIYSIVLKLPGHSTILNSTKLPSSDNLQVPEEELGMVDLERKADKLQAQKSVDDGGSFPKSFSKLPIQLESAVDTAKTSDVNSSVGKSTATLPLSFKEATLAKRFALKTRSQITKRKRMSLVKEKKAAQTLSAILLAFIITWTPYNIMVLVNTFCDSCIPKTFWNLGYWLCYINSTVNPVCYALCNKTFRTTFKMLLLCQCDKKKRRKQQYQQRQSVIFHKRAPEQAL

[6] = biological target: T3, Muscarinic acetylcholine receptor M4 (Homo sapiens, UniProt P08173); assay: Displacement of [3H]NMS from human muscarinic M4 receptor expressed in CHO-K1 cell membrane assessed as inhibition constant incubated for 90 mins by competitive radioligand binding assay; format: cell membranes
T3 sequence (P08173 whole entry): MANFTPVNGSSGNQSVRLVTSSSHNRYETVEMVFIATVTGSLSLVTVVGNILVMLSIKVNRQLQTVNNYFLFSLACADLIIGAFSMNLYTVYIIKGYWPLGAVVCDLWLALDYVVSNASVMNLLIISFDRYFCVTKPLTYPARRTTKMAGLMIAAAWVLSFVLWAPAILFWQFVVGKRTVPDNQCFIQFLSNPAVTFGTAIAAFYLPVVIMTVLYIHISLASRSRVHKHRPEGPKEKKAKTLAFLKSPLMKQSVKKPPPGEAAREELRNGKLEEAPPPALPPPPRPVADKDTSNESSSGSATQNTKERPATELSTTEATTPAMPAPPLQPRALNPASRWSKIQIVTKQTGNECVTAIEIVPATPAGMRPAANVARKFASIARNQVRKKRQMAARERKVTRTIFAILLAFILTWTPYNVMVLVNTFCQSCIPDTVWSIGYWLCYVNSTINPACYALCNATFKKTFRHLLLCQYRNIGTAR

[7] = biological target: T4, Muscarinic acetylcholine receptor M5 (Homo sapiens, UniProt P08912); assay: Displacement of [3H]NMS from human muscarinic M5 receptor expressed in CHO-K1 cell membrane assessed as inhibition constant incubated for 90 mins by competitive radioligand binding assay; format: cell membranes
T4 sequence (P08912 whole entry): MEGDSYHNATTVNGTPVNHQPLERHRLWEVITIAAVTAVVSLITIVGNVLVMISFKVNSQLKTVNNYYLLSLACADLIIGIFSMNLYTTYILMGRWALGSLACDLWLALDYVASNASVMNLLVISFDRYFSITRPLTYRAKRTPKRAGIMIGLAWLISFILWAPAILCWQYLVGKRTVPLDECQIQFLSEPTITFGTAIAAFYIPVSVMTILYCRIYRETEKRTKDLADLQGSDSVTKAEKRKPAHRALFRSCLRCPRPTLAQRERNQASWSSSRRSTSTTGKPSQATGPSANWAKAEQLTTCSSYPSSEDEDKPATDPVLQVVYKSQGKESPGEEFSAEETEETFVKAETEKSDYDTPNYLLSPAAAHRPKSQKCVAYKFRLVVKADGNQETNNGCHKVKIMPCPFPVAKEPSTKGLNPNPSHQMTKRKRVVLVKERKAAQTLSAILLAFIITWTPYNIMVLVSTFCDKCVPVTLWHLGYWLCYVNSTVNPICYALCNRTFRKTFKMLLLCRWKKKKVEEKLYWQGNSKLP

[8] = biological target: T5, Muscarinic acetylcholine receptor M1 (Homo sapiens) (UniProt P11229); assay: Antagonist activity at human muscarinic M1 receptor expressed in CHO-K1 cell membrane assessed as reduction in carbachol-induced ca2+ influx by fluorescence based assay; format: functional, cell membranes; conditions: filed as antagonist
T5 sequence (whole entry): T1 sequence (P11229 whole entry)

[9] = biological target: T5, Muscarinic acetylcholine receptor M1 (Homo sapiens); assay: Agonist activity at human muscarinic M1 receptor expressed in CHO-K1 cell membrane upto 100 uM by fluorescence based assay; format: functional, cell membranes
[10] = species on record: Homo sapiens; assay: Selectivity ratio of Ki for human muscarinic M1 receptor expressed in CHO-K1 cells to Ki for human muscarinic M5 receptor expressed in CHO-K1 cells; format: cell-based
[11] = species on record: Homo sapiens; assay: Selectivity ratio of Ki for human muscarinic M3 receptor expressed in CHO-K1 cells to Ki for human muscarinic M5 receptor expressed in CHO-K1 cells; format: cell-based
[12] = species on record: Homo sapiens; assay: Selectivity ratio of Ki for human muscarinic M4 receptor expressed in CHO-K1 cells to Ki for human muscarinic M5 receptor expressed in CHO-K1 cells; format: cell-based
[13] = biological target: Muscarinic acetylcholine receptor M2 and M5 (Homo sapiens) (UniProt P08172+P08912); assay: Selectivity ratio of Ki for human muscarinic M2 receptor expressed in CHO-K1 cells to Ki for human muscarinic M5 receptor expressed in CHO-K1 cells; format: cell-based
[14] = biological target: Muscarinic acetylcholine receptor M1 and M3 (Homo sapiens) (UniProt P20309+P11229); assay: Selectivity ratio of Ki for human muscarinic M1 receptor expressed in CHO-K1 cells to Ki for human muscarinic M3 receptor expressed in CHO-K1 cells; format: cell-based
Sequence of Muscarinic acetylcholine receptor M1 and M3 (Homo sapiens) (P20309 whole entry, looked up, one chain of several): as the sequence (P20309 whole entry) above

[15] = biological target: Muscarinic acetylcholine receptors; M2 & M3 (Homo sapiens) (UniProt P20309+P08172); assay: Selectivity ratio of Ki for human muscarinic M2 receptor expressed in CHO-K1 cells to Ki for human muscarinic M3 receptor expressed in CHO-K1 cells; format: cell-based
Sequence of Muscarinic acetylcholine receptors; M2 & M3 (Homo sapiens) (P20309 whole entry, looked up, one chain of several): as the sequence (P20309 whole entry) above

[16] = species on record: Homo sapiens; assay: Selectivity ratio of Ki for human muscarinic M4 receptor expressed in CHO-K1 cells to Ki for human muscarinic M3 receptor expressed in CHO-K1 cells; format: cell-based
[17] = species on record: Homo sapiens; assay: Selectivity ratio of Ki for human muscarinic M5 receptor expressed in CHO-K1 cells to Ki for human muscarinic M3 receptor expressed in CHO-K1 cells; format: cell-based

| SMILES | logP [1] | IC50 at 72 h [2] [µM] | Ki [3] [nM] | Ki [4] [nM] | Ki [5] [nM] | Ki [6] [nM] | Ki [7] [nM] | Activity [8] | Activity [9] | Ratio Ki [10] | Ratio Ki [11] | Ratio Ki [12] | Ratio Ki [13] | Ratio Ki [14] | Ratio Ki [15] | Ratio Ki [16] | Ratio Ki [17] |
| --- | --- | --- | --- | --- | --- | --- | --- | --- | --- | --- | --- | --- | --- | --- | --- | --- | --- |
| CN1CCC(OC(=O)N(c2ccccc2)c2ccccc2)CC1 | 2.11 | ≥ 100 | 255 | > 1000 | 121 | 158 | 255 | Dose-Dependent Effect | inactive | – | – | – | – | – | – | – | – |
| CN1CCC(Oc2nc3ccccc3n2-c2ccccc2)CC1 | 2.94 | ≥ 100 | 20 | 108 | 21 | 32 | 18 | Dose-Dependent Effect | inactive | – | – | – | – | – | – | – | – |
| CN1CCCC(Oc2nc3ccccc3n2-c2ccccc2)C1 (racemic) | 3.2 | ≥ 100 | 288 | 385 | 236 | 152 | 77 | – | – | – | – | – | – | – | – | – | – |
| CN1CCCC(OC(=O)N(c2ccccc2)c2ccccc2)C1 (centres undefined) | 2.69 | ≥ 100 | > 1000 | > 1000 | > 1000 | > 1000 | > 1000 | – | – | – | – | – | – | – | – | – | – |
| CN1[C@@H]2C[C@@H]3C[C@H]1C(O3)C2OC(=O)N(c1ccccc1)c1ccccc1 (some centres undefined) | 1.58 | ≥ 100 | > 1000 | > 1000 | > 1000 | > 1000 | > 1000 | Dose-Dependent Effect | inactive | – | – | – | – | – | – | – | – |
| c1ccc(-n2c(O[C@H]3CN4CCC3CC4)nc3ccccc32)cc1 | 1.2 | ≥ 100 | 16 | 70 | 3.7 | 9.4 | 2.6 | – | – | 1.4 | 1.4 | 1.4 | 1.4 | – | – | – | – |
| CN1[C@@H]2C[C@@H](Oc3nc4ccccc4n3-c3ccccc3)C[C@H]1[C@@H]1O[C@@H]12 | 3.04 | ≥ 100 | 285 | > 1000 | 350 | 189 | 164 | – | – | – | – | – | – | – | – | – | – |
| CN1CCC(Oc2nc3ccccc3n2-c2ccccc2)C1 (racemic) | 2.81 | ≥ 100 | 51 | 258 | 60 | 65 | 14 | Dose-Dependent Effect | inactive | 4 | 4 | 4 | 18 | – | – | – | – |
| CN1CCN(Cc2nc3cccnc3n2-c2ccccc2C(=O)O)CC1 | – | – | – | > 1000 | > 1000 | > 1000 | – | – | – | – | – | – | – | – | – | – | – |
| CN1CC(Oc2nc3ccccc3n2-c2ccccc2)C1 | 2.6 | ≥ 100 | > 1000 | > 1000 | > 1000 | > 1000 | > 1000 | – | – | – | – | – | – | – | – | – | – |
| CN1CCC(OC(=O)N(c2ccccc2)c2ccccc2)C1 (centres undefined) | 1.91 | ≥ 100 | 217 | > 1000 | 123 | 156 | 105 | Dose-Dependent Effect | inactive | – | – | – | – | – | – | – | – |
| CN1[C@@H]2CC[C@H]1C[C@H](Oc1nc3ccccc3n1-c1ccccc1)C2 | 3.05 | ≥ 100 | 9 | 16 | 17 | 11 | 8.1 | Dose-Dependent Effect | inactive | – | – | – | – | – | – | – | – |
| CN1[C@@H]2CC[C@H]1C[C@@H](Oc1nc3ccccc3n1-c1ccccc1)C2 | 2.73 | ≥ 100 | 101 | 442 | 46 | 201 | > 1000 | – | – | – | – | – | – | 2.5 | 2.5 | 2.5 | 2.5 |
| CN1[C@@H]2CC[C@H]1C[C@@H](OC(=O)N(c1ccccc1)c1ccccc1)C2 | 2.69 | ≥ 100 | > 1000 | > 1000 | > 1000 | > 1000 | > 1000 | – | – | – | – | – | – | – | – | – | – |
| CN1CC(OC(=O)N(c2ccccc2)c2ccccc2)C1 | 1.82 | ≥ 100 | > 1000 | > 1000 | 339 | 244 | > 1000 | – | – | – | – | – | – | – | – | – | – |
| CN1[C@@H]2CC[C@H]1C[C@H](OC(=O)N(c1ccccc1)c1ccccc1)C2 | 1.58 | ≥ 100 | 44 | 222 | 108 | 50 | 75 | Dose-Dependent Effect | inactive | – | – | – | – | – | – | – | – |
